Key:
[1] = Acute cytotoxicity against PEK cells after 24 hrs by neutral red staining assay; type: cell-based, Sus scrofa; conditions: pig
[2] = tested on: Omsk hemorrhagic fever virus; test: Antiviral activity against Omsk hemorrhagic fever virus Nikitina infected in PEK cells assessed as inhibition of viral plaque formation after 1 hr by gentian violet staining assay; type: functional, cell-based
[3] = tested on: Tick-borne encephalitis virus; test: Antiviral activity against Tick-borne encephalitis virus Absettarov infected in PEK cells assessed as inhibition of viral plaque formation after 1 hr by gentian violet staining assay; type: functional, cell-based
[4] = Chronic cytotoxicity against PEK cells after 7 days by neutral red staining assay; type: cell-based, Sus scrofa; conditions: pig
[5] = tested on: Powassan virus; test: Antiviral activity against Powassan virus 24 infected in PEK cells assessed as inhibition of viral plaque formation after 1 hr by gentian violet staining assay; type: functional, cell-based; conditions: for IC50: Powassan virus, 24, PEK

SMILES	CC50 at 24 h [1]	IC50 [2]	inhibition [2]	IC50 [3]	inhibition [3]	CC50 at 168 h [4]	inhibition [5]	IC50 [5]
COc1ccc(N2CSC3=C(C#N)C(c4ccc(OCc5ccccc5)c(OC)c4)CC(=O)N3C2)cc1 (racemic)	> 250 µM	> 10 µM	Dose-dependent effect	0.09 µM	Dose-dependent effect	53 µM	Dose-dependent effect	> 10 µM
CC1=C(C(=O)Nc2ccccc2C)C(c2ccco2)C(C#N)=C(SCC(=O)Nc2ccc3ccccc3c2)N1 (racemic)	> 250 µM	5.3 µM	Dose-dependent effect	> 10 µM	Dose-dependent effect	> 250 µM	Dose-dependent effect	> 10 µM
CCc1ccc(NC(=O)CSC2=C(C#N)C(c3ccco3)C(C(=O)Nc3ccc(CC)cc3)=C(C)N2)cc1 (racemic)	57 µM	> 10 µM	Dose-dependent effect	> 10 µM	Dose-dependent effect	33 µM	Dose-dependent effect	> 10 µM
CCc1ccc(NC(=O)CSC2=C(C#N)C(c3ccco3)C(C(=O)Nc3ccc(S(N)(=O)=O)cc3)=C(C)N2)cc1 (racemic)	> 250 µM	10 µM	Dose-dependent effect	> 10 µM	Dose-dependent effect	153 µM	Dose-dependent effect	> 10 µM
CC1=C(C(=O)Nc2nc3ccccc3s2)C(c2ccco2)C(C#N)=C(SCC(=O)Nc2nc3ccccc3s2)N1 (racemic)	> 250 µM	2.5 µM	Dose-dependent effect	> 10 µM	Dose-dependent effect	52 µM	Dose-dependent effect	> 10 µM
CC1=C(C(=O)Nc2ccccc2)C(c2cccs2)C(C#N)=C(SCC(=O)c2ccccc2)N1 (racemic)	> 250 µM	> 10 µM	Dose-dependent effect	> 10 µM	Dose-dependent effect	17 µM	Dose-dependent effect	> 10 µM
CC1=C(C(=O)Nc2ccc(Cl)cc2)C(c2ccccc2)C(C#N)=C(SCC(=O)Nc2ccc3ccccc3c2)N1 (racemic)	111 µM	> 10 µM	Dose-dependent effect	> 10 µM	Dose-dependent effect	20 µM	Dose-dependent effect	> 10 µM
CCc1ccc(NC(=O)CSC2=C(C#N)C(c3ccc(O)c(OC)c3)C(C(=O)Nc3ccccc3)=C(C)N2)cc1 (racemic)	114 µM	1.8 µM	Dose-dependent effect	> 10 µM	Dose-dependent effect	31 µM	Dose-dependent effect	> 10 µM
COc1ccccc1NC(=O)C1=C(C)NC(SCC(=O)Nc2ccc(C)cc2)=C(C#N)C1c1cccs1 (racemic)	> 250 µM	5.5 µM	Dose-dependent effect	> 10 µM	Dose-dependent effect	97 µM	Dose-dependent effect	> 10 µM
CC1=C(C(=O)Nc2ccccc2)C(c2ccco2)C(C#N)=C(SCC(=O)Nc2ccc(C)c(C)c2)N1 (racemic)	> 250 µM	3.2 µM	Dose-dependent effect	> 10 µM	Dose-dependent effect	19 µM	Dose-dependent effect	> 10 µM
CCc1ccc(N2CSC3=C(C#N)C(c4cccc(OCc5ccccc5)c4)CC(=O)N3C2)cc1 (racemic)	> 250 µM	> 11.9 µM	Dose-dependent effect	> 10 µM	Dose-dependent effect	236 µM	Dose-dependent effect	> 10 µM
COc1ccccc1NC(=O)C1=C(C)NC(SCC(=O)Nc2ccc(Br)cc2)=C(C#N)C1c1ccc(C)o1 (racemic)	248 µM	3.7 µM	Dose-dependent effect	> 10 µM	Dose-dependent effect	34 µM	Dose-dependent effect	> 10 µM
CCCCc1ccc(NC(=O)CSC2=C(C#N)C(c3ccco3)C(C(=O)Nc3ccc(OCC)cc3)=C(C)N2)cc1 (racemic)	64 µM	> 10 µM	Dose-dependent effect	2.5 µM	Dose-dependent effect	14 µM	Dose-dependent effect	> 10 µM
COc1ccc(NC(=O)CSC2=C(C#N)C(c3ccccc3F)C(C(=O)Nc3ccccc3C)=C(C)N2)cc1 (racemic)	> 250 µM	7.2 µM	Dose-dependent effect	> 10 µM	Dose-dependent effect	89 µM	Dose-dependent effect	> 10 µM
CCCCc1ccc(N2CSC3=C(C#N)C(c4ccc(OCc5ccccc5)cc4)CC(=O)N3C2)cc1 (racemic)	> 250 µM	> 10 µM	Dose-dependent effect	1.9 µM	Dose-dependent effect	35 µM	Dose-dependent effect	> 10 µM
CC1=C(C(=O)Nc2ccc(Cl)cc2)C(c2ccccc2)C(C#N)=C(SCC(=O)Nc2ccc(Oc3ccccc3)cc2)N1 (racemic)	> 250 µM	> 10 µM	Dose-dependent effect	2.8 µM	Dose-dependent effect	38 µM	Dose-dependent effect	> 10 µM
CCOc1ccccc1N1CSC2=C(C#N)C(c3cccc(OCc4ccccc4)c3)CC(=O)N2C1 (racemic)	> 250 µM	> 10 µM	Dose-dependent effect	2.6 µM	Dose-dependent effect	116 µM	Dose-dependent effect	2.2 µM
CCc1ccc(NC(=O)CSC2=C(C#N)C(c3ccco3)C(C(=O)Nc3ccc(Cl)cc3)=C(C)N2)cc1 (racemic)	26 µM	> 10 µM	Dose-dependent effect	> 10 µM	Dose-dependent effect	27 µM	Dose-dependent effect	> 10 µM
CC1=C(C(=O)Nc2ccc(Cl)cc2)C(c2ccccc2)C(C#N)=C(SCC(=O)Nc2cccc(C)c2)N1 (racemic)	> 250 µM	> 10 µM	Dose-dependent effect	2 µM	Dose-dependent effect	41 µM	Dose-dependent effect	> 10 µM
COc1ccc(N2CSC3=C(C#N)C(c4ccc(OCc5ccc(Cl)cc5)cc4)CC(=O)N3C2)c(OC)c1 (racemic)	109 µM	> 10 µM	Dose-dependent effect	0.07 µM	Dose-dependent effect	39 µM	Dose-dependent effect	1.3 µM
CC1=C(C(=O)Nc2c(C)cccc2C)C(c2ccco2)C(C#N)=C(SCC(=O)Nc2nc3ccccc3s2)N1 (racemic)	> 250 µM	7.1 µM	Dose-dependent effect	> 10 µM	Dose-dependent effect	7 µM	Dose-dependent effect	> 10 µM
CC1=C(C(=O)Nc2nc3ccccc3s2)C(c2ccco2)C(C#N)=C(SCC(=O)Nc2ccc(C(C)C)cc2)N1 (racemic)	> 250 µM	2.5 µM	Dose-dependent effect	> 10 µM	Dose-dependent effect	29 µM	Dose-dependent effect	> 10 µM

Reference: ChEMBL document CHEMBL2429750, “Inhibitors of tick-borne flavivirus reproduction from structure-based virtual screening” (ACS Med Chem Lett, 2013)
